Consider two molecules from patent US20230000808A1, “COMPOSITIONS AND METHODS EXCLUDING OR WITH REDUCED GLUTAMINE FOR THE TREATMENT OF HEMOGLOBINOPATHIES AND THALASSEMIAS” (AXCELLA HEALTH INC., priority 2019, published 2023).

One test concerns IL-6. Briefly: Secreted IL-6 in HLMVEC treated with TNF-α (FirePlex). It counts as cell-based, human. An outline of the steps: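 Primary human lung microvascular endothelial cells, after overnight attachment, were switched to medium with amino acid levels mimicking SCD patient blood, plus 0.5 ng/mL TNF-α with or without amino acid treatments at 20× mean physiological plasma concentrations. Supernatant IL-6 measured by FirePlex immunoassay, interpolated from a standard curve.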

In the next test the test system is ICAM-1. In words: ICAM-1 cell integrated intensity in HLMVEC treated with TNF-α (immunofluorescence). In kind it is cell-based, human. The conditions noted are these: for TNFα induced ICAM-1 expression levels in HLMVEC: 0.5 ng/mL TNF-α, amino acids at 20× HMDB, 24 hours. The gist of the method:
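Primary human lung microvascular endothelial cells, 24 h in medium with SCD-like amino acid profile plus 0.5 ng/mL TNF-α, with or without amino acids at 20× mean plasma level. Fixed, immunostained for ICAM-1 and VCAM-1; integrated intensity per cell by high-content imaging.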

A further test concerns TNFα. In words: LPS-induced TNF-α secretion in primary human monocyte-derived macrophages (ELISA). In kind it is cell-based. The conditions noted are these: for TNF-α Measurements Mean: baseline subtracted; for effect on LPS-induced TNF-α secretion: Two Way ANOVA Dunnett. How it is done:
Primary human PMBC derived macrophages were seeded on day 0 at 3.0×10^4 cells per well in 96-well microplates (ThermoFisher) in Dulbecco's Modified Eagle Medium (DMEM) (Gibco) supplemented with penicillin-streptomycin (Hyclone) and 10% heat inactivated fetal bovine serum (HI-FBS) (Atlanta Bio) and incubated overnight at 37° C., 5% CO2. On day 1, cells were washed once with 150 μl per well DPBS (Gibco) and treated with 75 μl of: • a. […] The same medium described above with one amino acid at various concentrations including complete dropout. […] On day 3, the supernatant was collected and immediately frozen in −80° C. freezer. Cells were washed once with 150 μl DPBS and viability was assessed using the WST-8 Cell Proliferation Cytotoxicity Assay (Dojindo). […] Protein levels in supernatant samples were analyzed by ELISA for IL-6 and TNFα using commercially available kits (R&D Systems) according to manufacturer-supplied protocols.
(In general: An ELISA detects its analyte on a solid surface through an enzyme-linked reagent.)

Setting [1] is: HLMVEC + 0.5 ng/mL TNF-α, 24 h, amino acids 20x HMDB, Nac/Cit/Car 5 mM as bracketed.

`NC(=O)CC[C@H](N)C(=O)O` [Glutamine, L-glutamine]: the “IL-6 secretion from TNFα treated HLMVEC” value with IL-6 (0.5 ng/mL TNF-α, amino acids at 20× HMDB, 24 hours) was “increased”. In the test with ICAM-1, the “TNFα induced ICAM-1 expression levels in HLMVEC” value is on record as “increased”. Further, the “TNF-α Measurements Mean” value with TNFα (Donor 1, Conc. 749 μM (baseline), LPS) is 0; in the test on TNFα (Donor 1, Conc. 3747 μM, LPS), −45.7; in the test on TNFα (Donor 1, Conc. 11242 μM, LPS) it was −65.24; with TNFα (Donor 1, Conc. 22484 μM, LPS), −103.07; in the test on TNFα (Donor 2, Conc. 749 μM (baseline), LPS), −9.5E−15; in the test with TNFα (Donor 2, Conc. 3747 μM, LPS), 9.338. Also, the “TNF-α Measurements Mean” value with TNFα (Donor 2, Conc. 11242 μM, LPS) amounted to 20.04; with TNFα (Donor 2, Conc. 22484 μM, LPS) it was 11.5; in the test on TNFα (Donor 3, Conc. 749 μM (baseline), LPS), 0; in the test on TNFα (Donor 3, Conc. 3747 μM, LPS) it was 1.936; in the test on TNFα (Donor 3, Conc. 11242 μM, LPS), 18; in the test with TNFα (Donor 3, Conc. 22484 μM, LPS), 29.14. Further, the “effect on LPS-induced TNF-α secretion” value with TNFα (Donor 2) and in the test with TNFα (Donor 3) was “increased” in each case.

Regarding `CC(=O)N[C@@H](CS)C(=O)O` [N-Acetyl Cysteine, N-acetylcysteine], the “Secreted IL6 Median” value in the test with IL-6 (setting [1]) is recorded as −0.497. Further, the “TNFα induced ICAM-1 expression levels in HLMVEC” value in the test on ICAM-1 is “reduced levels of ICAM-1 expression to a lesser extent”. Also, the “ICAM-1 Cell Integrated Intensity Median” value in the test with ICAM-1 (setting [1]) is listed as −0.222. In addition, the “TNF-α Measurements Mean” value in the test on TNFα (Donor 1, Conc. 5 X, LPS 0.15 ng/mL) was −326.24; in the test on TNFα (Donor 1, Conc. 10 X, LPS 0.15 ng/mL), −446.88; in the test with TNFα (Donor 1, Conc. 20 X, LPS 0.15 ng/mL) it was −561.33; in the test with TNFα (Donor 1, Conc. 40 X, LPS 0.15 ng/mL), −644.49; with TNFα (Donor 2, Conc. 5 X, LPS 0.15 ng/mL) it was −54.1596; in the test with TNFα (Donor 2, Conc. 10 X, LPS 0.15 ng/mL) it was −70.8382. Further, the “TNF-α Measurements Mean” value with TNFα (Donor 2, Conc. 20 X, LPS 0.15 ng/mL) is listed as −88.6528; in the test with TNFα (Donor 2, Conc. 40 X, LPS 0.15 ng/mL), −103.984; with TNFα (Donor 3, Conc. 5 X, LPS 0.15 ng/mL) it was −33.6246; in the test on TNFα (Donor 3, Conc. 10 X, LPS 0.15 ng/mL), −41.7266; in the test with TNFα (Donor 3, Conc. 20 X, LPS 0.15 ng/mL), −48.4373; in the test with TNFα (Donor 3, Conc. 40 X, LPS 0.15 ng/mL) it was −55.3093. Further, the “effect on LPS-induced TNF-α secretion” value with TNFα (Donor 1), in the test with TNFα (Donor 2) and in the test with TNFα (Donor 3) was “significantly reduced” in each case.
